Measurements reported in a flash point compilation (Sun et al. 2020).

| Structure (SMILES) | flash point [°C] |
| --- | --- |
| OCCCl [2-chloroethanol] | 55 |
| O=C1C=CCCC1 [2-cyclohexen-1-one] | 56 |
| CCCCCCCCC(C)O (configuration not stated) [2-decanol] | 85 |
| CCCCCCCCCCC(C)=O [2-dodecanone] | 108 |
| CC#CCCCCCCCCC [2-dodecyne] | 78 |
| CCOCCOC(C)=O [2-ethoxyethylacetate] | 51 |
| CCc1cc(C)ccc1C [2-ethyl-1,4-dimethylbenzene] | 56 |
| C=C(CC)CC [2-ethyl-1-butene] | -26 |
| CCCCC(CC)CN (configuration not stated) [2-ethyl-1-hexanamine] | 50 |
| C=C(CC)CCC [2-ethyl-1-pentene] | -10 |
| CCc1ccccc1N [2-ethylaniline] | 85 |
| CCC(C=O)CC [2-ethylbutanal] | 21 |
| CCC1CCCCCC1=O (configuration not stated) [2-ethylcycloheptanone] | 71 |
| CCc1ccco1 [2-ethylfuran] | -2 |
| CCCCC(C=O)CC (configuration not stated) [2-ethylhexanal] | 46 |
| C=CC(=O)OCC(CC)CCCC (configuration not stated) [2-ethylhexylacrylate] | 86 |
| CCc1cccs1 [2-ethylthiophene] | 21 |
| CCCCCC(C)=O [2-heptanone] | 39 |
| CCCCC(C)O (configuration not stated) [2-hexanol] | 46 |
| CCCC(C)I (configuration not stated) [2-iodopentane] | 45 |
| CC(C)COCCO [2-isobutoxyethanol] | 51 |
| CC(C)OCCO [2-isopropoxyethanol] | 43 |
| OCCS [2-mercaptoethanol] | 68 |
| CCC(C)OC (configuration not stated) [2-methoxybutane] | -29 |
| CCC(C)CS (configuration not stated) [2-methyl-1-butanethiol] | 19 |
| CCC(C)CO (configuration not stated) [2-methyl-1-butanol] | 43 |

| Structure (SMILES) | flash point [°C] |
| --- | --- |
| C=C(C)CC [2-methyl-1-butene] | -47 |
| C=C(C)CCC [2-methyl-1-pentene] | -27 |
| CC(C)CO [2-methyl-1-propanol] | 28 |
| CCC(C)(C)O [2-methyl-2-butanol] | 21 |
| CC=C(C)C [2-methyl-2-butene] | -45 |
| CCCCC=C(C)C [2-methyl-2-heptene] | 9 |
| CCCC(C)(C)S [2-methyl-2-pentanethiol] | 20 |
| CCC(O)C(C)C (configuration not stated) [2-methyl-3-pentanol] | 46 |
| CCCCCCCCC(C)C [2-methyldecane] | 50 |
| CCCCCCCCCCC(C)C [2-methyldodecane] | 71 |
| CCCCC(C)C(=O)O (configuration not stated) [2-methylhexanoicacid] | 105 |
| CCCCCCC(C)C [2-methyloctane] | 24 |
| CCCCCCCCCC(C)C [2-methylundecane] | 61 |
| CC(C)[N+](=O)[O-] [2-nitropropane] | 28 |
| CCCCCCCC(C)=O [2-nonanone] | 68 |
| CCCCCCC(C)O (configuration not stated) [2-octanol] | 72 |
| CCCCCC1CCCC1=O (configuration not stated) [2-pentylcyclopentanone] | 78 |
| CCC(C)(C)c1ccccc1 [2-phenyl-2-methylbutane] | 59 |
| CCCc1ccco1 [2-propylfuran] | 15 |
| CCCc1ccccc1O [2-propylphenol] | 93 |
| CCC(C)c1ccccc1O (configuration not stated) [2-sec-butylphenol] | 107 |
| CCCCCCCCCC(C)=O [2-undecanone] | 89 |
| CCC(C)(C)C(C)(C)CC [3,3,4,4-tetramethylhexane] | 31 |
| CC1(C)CC(=O)CC(C)(C)C1 [3,3,5,5-tetramethylcyclohexanone] | 73 |
| CCC(C)CC(C)(C)CC (configuration not stated) [3,3,5-trimethylheptane] | 31 |
| CCC(CC)(CC)CC [3,3-diethylpentane] | 21 |

| Structure (SMILES) | flash point [°C] |
| --- | --- |
| C#CC(C)(C)C [3,3-dimethyl-1-butyne] | -34 |
| CC(C)(C)CC(=O)O [3,3-dimethylbutanoicacid] | 88 |
| CCCC(C)(C)CC [3,3-dimethylhexane] | -1 |
| CCCCCC(C)(C)CC [3,3-dimethyloctane] | 41 |
| CCC(C)(C)CC [3,3-dimethylpentane] | -19 |
| CCC(C)C(C)C(C)CC (configuration not stated) [3,4,5-trimethylheptane] | 31 |
| CCC(C)C(C)CC (configuration not stated) [3,4-dimethylhexane] | 6 |
| CCC(C)CC(C)CC (configuration not stated) [3,5-dimethylheptane] | 15 |
| CCCC(C)CC(C)CC (configuration not stated) [3,5-dimethyloctane] | 41 |
| C=CCC#N [3-butenenitrile] | 21 |
| SCCCCl [3-chloro-1-propanethiol] | 43 |
| Cc1cccc(Cl)c1 [3-chlorotoluene] | 50 |
| CCCCCCCC(O)CC (configuration not stated) [3-decanol] | 99 |
| CCC#CCCCCCC [3-decyne] | 52 |
| C=CC(CC)CCC (configuration not stated) [3-ethyl-1-hexene] | 1 |
| C=CC(CC)CC [3-ethyl-1-pentene] | -17 |
| CCCC(CC)C(C)(C)C (configuration not stated) [3-ethyl-2,2-dimethylhexane] | 38 |
| CCC(C)(C(C)C)C(C)C [3-ethyl-2,3,4-trimethylpentane] | 31 |
| CCC(C)(CC)C(C)C [3-ethyl-2,3-dimethylpentane] | 15 |
| CCC(C)(CC)CC [3-ethyl-3-methylpentane] | 3 |
| CCC(S)(CC)CC [3-ethyl-3-pentanethiol] | 34 |
| CCC(C)C(CC)CC (configuration not stated) [3-ethyl-4-methylhexane] | 15 |
| CCc1cccc(N)c1 [3-ethylaniline] | 85 |
| CCC1CCC(=O)C1 (configuration not stated) [3-ethylcyclopentanone] | 46 |
| CCC(CC)CC [3-ethylpentane] | -12 |
| CCCCC(O)CC (configuration not stated) [3-heptanol] | 55 |

| Structure (SMILES) | flash point [°C] |
| --- | --- |
| CCC#CCCC [3-heptyne] | 5 |
| CCCC(S)CC (configuration not stated) [3-hexanethiol] | 30 |
| CCCC(O)CC (configuration not stated) [3-hexanol] | 45 |
| CCCC(=O)CC [3-hexanone] | 23 |
| CC(C)CCO [3-methyl-1-butanol] | 43 |
| CCC(C)CCO (configuration not stated) [3-methyl-1-pentanol] | 58 |
| CC(=O)C(C)C [3-methyl-2-butanone] | -1 |
| CCC(C)C(C)O (configuration not stated) [3-methyl-2-pentanol] | 41 |
| CCC(C)C(C)=O (configuration not stated) [3-methyl-2-pentanone] | 12 |
| COc1cccc(C)c1 [3-methylanisole] | 52 |
| CC(C)CC#N [3-methylbutanenitrile] | 28 |
| CC1C=CCCC1 (configuration not stated) [3-methylcyclohexene] | -3 |
| CC1CCC(=O)C1 (configuration not stated) [3-methylcyclopentanone] | 34 |
| Cc1ccoc1 [3-methylfuran] | -22 |
| CCCCCCC(C)CC (configuration not stated) [3-methylnonane] | 41 |
| CCCCCC(C)CC (configuration not stated) [3-methyloctane] | 24 |
| CCC(C)CC [3-methylpentane] | -32 |
| CCCCCCC(=O)CC [3-nonanone] | 63 |
| CCCCCC(=O)CC [3-octanone] | 51 |
| CCC(N)CC [3-pentanamine] | 2 |
| CCC(O)CC [3-pentanol] | 33 |
| CCC(=O)CC [3-pentanone] | 7 |
| Cc1cccnc1 [3-picoline] | 36 |
| CC(C)(C)c1cccc(N)c1 [3-tert-butylaniline] | 101 |
| CC(C)(C)C1CCC(=O)C1 (configuration not stated) [3-tert-butylcyclopentanone] | 64 |
| CC#CC(C)(C)C [4,4-dimethyl-2-pentyne] | -10 |

| Structure (SMILES) | flash point [°C] |
| --- | --- |
| CCCC(C)(C)CCC [4,4-dimethylheptane] | 15 |
| CCCCc1ccc(N)cc1 [4-butylaniline] | 102 |
| Cc1ccc(Cl)cc1 [4-chlorotoluene] | 46 |
| CCc1ccc(C)c(C)c1 [4-ethyl-1,2-dimethylbenzene] | 58 |
| CCCC(CC)C(C)CC (configuration not stated) [4-ethyl-3-methylheptane] | 41 |
| CCC1CCC(=O)CC1 [4-ethylcyclohexanone] | 63 |
| CCCCC(CC)CCC (configuration not stated) [4-ethyloctane] | 41 |
| C=Cc1ccc(F)cc1 [4-fluorostyrene] | 35 |
| Cc1ccc(F)cc1 [4-fluorotoluene] | 12 |
| Cc1ccc(I)cc1 [4-iodotoluene] | 90 |
| CC(C)C1CCC(=O)CC1 [4-isopropylcyclohexanone] | 65 |
| C=CCC(C)C [4-methyl-1-pentene] | -32 |
| CC(C)CC(C)O (configuration not stated) [4-methyl-2-pentanol] | 41 |
| COc1ccc(C)cc1 [4-methylanisole] | 53 |
| CC1CC=CCC1 (configuration not stated) [4-methylcyclohexene] | -1 |
| CCCC(C)CCC [4-methylheptane] | 5 |
| CCCCC(=O)CCC [4-octanone] | 45 |
| CCCC#CCCC [4-octyne] | 18 |
| C=CCCCO [4-penten-1-ol] | 43 |
| CC=Cc1ccc(OC)cc1 [4-propenylanisole] | 96 |
| CCCc1ccc(N)cc1 [4-propylaniline] | 103 |
| CCCc1ccc(OC)cc1 [4-propylanisole] | 82 |
| CCCC(CCC)CCC [4-propylheptane] | 35 |
